Source: patent publication US9499551B2, “Substituted pyrrolo[2,3-b]pyridines for treating cancer or inflammatory diseases” (Confluence Life Sciences, Inc., priority 2014, dated 2016)

Target: T1, TAK1-TAB1 (Homo sapiens, UniProt O43318)
T1 sequence (O43318 with tags, fused parts or gaps limits assumed): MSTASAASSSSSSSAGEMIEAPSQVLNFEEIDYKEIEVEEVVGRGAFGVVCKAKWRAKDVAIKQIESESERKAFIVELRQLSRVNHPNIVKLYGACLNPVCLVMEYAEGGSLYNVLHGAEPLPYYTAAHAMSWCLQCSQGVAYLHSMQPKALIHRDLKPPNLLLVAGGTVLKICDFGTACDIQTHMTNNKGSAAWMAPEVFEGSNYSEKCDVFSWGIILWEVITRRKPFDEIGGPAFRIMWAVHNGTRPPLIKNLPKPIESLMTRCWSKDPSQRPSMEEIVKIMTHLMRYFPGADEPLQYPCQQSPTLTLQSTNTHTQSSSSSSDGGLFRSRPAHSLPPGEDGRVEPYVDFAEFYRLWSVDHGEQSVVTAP
Assay: TAK1-TAB1 binding inhibitory potency (LanthaScreen competitive binding assay, kinase tracer-236)
Conditions: 10 nM TAK1-TAB1, 100 nM kinase tracer-236; read-out: TAK1-Tab Inhibition IC50
From the text: TAK1-TAB1 Binding Inhibitory Potency:
The ability of candidate compounds to interact with TAK1-TAB1 is quantitated by a competitive binding assay using the LanthaScreen technology developed by Life Technologies. This assay is based on the binding of a proprietary, Alexa Fluor® 647-labeled, ATP-competitive kinase inhibitor (kinase tracer-236) to the TAK1-TAB1 construct in presence of a europium-conjugated antibody, resulting in a FRET (fluorescence resonance energy transfer) signal. Displacement of the kinase tracer by compound results in a lower emission ratio upon excitation of the europium chelate. Candidate compounds are designed as potential irreversible inhibitors of TAK1-TAB1, capable of ligating to an active site cysteine residue. The time dependent nature of irreversible inhibition is investigated by performing the binding assay with and without a pre-incubation of compound and TAK1-TAB1.
The inhibitory potency of candidate compounds is measured in 20 mM HEPES pH 7.5, 10 mM MgCl2, 0.01% BSA, 0.0005% Tween-20, and 2% DMSO in the presence of 10 nM TAK1-TAB1, 2 nM Eu-anti-his antibody, and 100 nM kinase tracer-236 using a 384-well plate format. Background signal is defined in the absence of TAK1-TAB1 and uninhibited signal is defined in the presence of vehicle (2% DMSO) alone. Compounds were evaluated in an 11 point dose-response ranging from 20 μM to 0.34 nM. The binding assays are performed under two conditions to evaluate time dependence of inhibition. For the pre-incubation assay, TAK1-TAB1 and Eu-anti-his antibody are preincubated with compound or vehicle for two hours prior to the addition of kinase tracer. The non-preincubated assay is run in which TAK1-TAB1 and Eu-anti-his antibody are added to a mixture of compound and kinase tracer. IC50 values of compounds are determined using a 4 parameter logistical fit of emission ratio as a function of the concentration of compound. […]

Row | Compound | IC50 [nM]
1 | O=C(Nc1c[nH]c2ncc(-c3ccccc3)cc12)C1=CCCC1 [Example 232, N-(5-phenyl-1H-pyrrolo[2,3-b]pyridin-3-yl)cyclopent-1-enecarboxamide] | > 1000
2 | C=C(C)C(=O)Nc1c[nH]c2ncc(-c3ccccc3)cc12 [Example 233, N-(5-phenyl-1H-pyrrolo[2,3-b]pyridin-3-yl) methacrylamide] | > 1000
3 | C/C=C/C(=O)Nc1c[nH]c2ncc(-c3ccccc3)cc12 [Example 235, (E)-N-(5-phenyl-1H-pyrrolo[2,3-b]pyridin-3-yl)but-2-enamide] | > 1000
4 | C=CC(=O)Nc1c[nH]c2ncc(-c3ccccc3)cc12 [Example 236, N-(5-phenyl-1H-pyrrolo[2,3-b]pyridin-3-yl)acrylamide] | > 1000
5 | CC#CC(=O)Nc1c[nH]c2ncc(-c3ccccc3)cc12 [Example 237, N-(5-phenyl-1H-pyrrolo[2,3-b]pyridin-3-yl)but-2-ynamide] | ≤ 1000
6 | C#CC(=O)Nc1c[nH]c2ncc(-c3ccccc3)cc12 [Example 238, N-(5-phenyl-1H-pyrrolo[2,3-b]pyridin-3-yl)propiolamide] | > 1000
7 | O=C(/C=C/CO)Nc1c[nH]c2ncc(-c3ccccc3)cc12 [Example 239, (E)-4-hydroxy-N-(5-phenyl-1H-pyrrolo[2,3-b]pyridin-3-yl)but-2-enamide] | ≤ 1000
8 | CN(C)C/C=C/C(=O)Nc1c[nH]c2ncc(-c3ccccc3)cc12 [Example 241, (E)-4-(dimethylamino)-N-(5-phenyl-1H-pyrrolo[2,3-b]pyridin-3-yl)but-2-enamide] | > 1000
9 | N#CC(C#N)=Cc1c[nH]c2ncc(-c3ccccc3)cc12 [Example 242, 2-((5-phenyl-1H-pyrrolo[2,3-b]pyridin-3-yl)methylene) malononitrile] | > 1000
10 | NC(=O)/C=C/c1c[nH]c2ncc(-c3ccc(N4CCCC4)nc3)nc12 [Example 254, (E)3-(2-(6-(pyrrolidin-1-yl)pyridin-3-yl)-5H-pyrrolo[2,3-b]pyrazin-7-yl)acrylamide] | > 1000
11 | NC(=O)/C=C/c1c[nH]c2ncc(-c3cccnc3)nc12 [Example 255, (E)-3-(2-(pyridin-3-yl)-5H-pyrrolo[2,3-b]pyrazin-7-yl)acrylamide] | > 1000
12 | CC(C)OC(=O)N1CCN(c2cnc3[nH]cc(/C=C/C(N)=O)c3c2)CC1 [Example 301, (E)-isopropyl 4-(3-(3-amino-3-oxoprop-1-en-1-yl)-1H-pyrrolo[2,3-b]pyridin-5-yl)piperazine-1-carboxylate] | ≤ 1000
13 | NC(=O)/C=C/c1c[nH]c2ncc(N3CCN(C(=O)Oc4ccccc4)CC3)cc12 [Example 302, (E)-phenyl 4-(3-(3-amino-3-oxoprop-1-en-1-yl)-1H-pyrrolo[2,3-b]pyridin-5-yl)piperazine-1-carboxylate] | ≤ 1000
14 | CC(=O)c1ccc(-c2cnc3[nH]cc(/C=C/C(N)=O)c3c2)cn1 [Example 303, (E)-3-(5-(6-acetylpyridin-3-yl)-1H-pyrrolo[2,3-b]pyridin-3-yl)acrylamide] | ≤ 1000
15 | CC(=O)c1cncc(-c2cnc3[nH]cc(/C=C/C(N)=O)c3c2)c1 [Example 304, (E)-3-(5-(5-acetylpyridin-3-yl)-1H-pyrrolo[2,3-b]pyridin-3-yl)acrylamide] | ≤ 1000
16 | CC(C)(O)c1ccc(-c2cnc3[nH]cc(/C=C/C(N)=O)c3n2)cn1 [Example 305, (E)-3-(2-(6-(2-hydroxypropan-2-yl)pyridin-3-yl)-5H-pyrrolo[2,3-b]pyrazin-7-yl)acrylamide] | ≤ 1000
17 | CC(=O)c1cccc(-c2cnc3[nH]cc(/C=C/C(N)=O)c3n2)c1 [Example 306, (E)-3-(2-(3-acetylphenyl)-5H-pyrrolo[2,3-b]pyrazin-7-yl)acrylamide] | ≤ 1000
18 | CC(=O)c1ccc(-c2cnc3[nH]cc(/C=C/C(N)=O)c3n2)cc1 [Example 307, (E)-3-(2-(4-acetylphenyl)-5H-pyrrolo[2,3-b]pyrazin-7-yl)acrylamide] | ≤ 1000

Row | Compound | IC50 [nM]
19 | CC(C)(O)c1cccc(-c2cnc3[nH]cc(/C=C/C(N)=O)c3n2)c1 [Example 308, (E)-3-(2-(3-(2-hydroxypropan-2-yl)phenyl)-5H-pyrrolo[2,3-b]pyrazin-7-yl)acrylamide] | ≤ 1000
20 | CC(C)(O)c1ccc(-c2cnc3[nH]cc(/C=C/C(N)=O)c3n2)cc1 [Example 309, (E)-3-(2-(4-(2-hydroxypropan-2-yl)phenyl)-5H-pyrrolo[2,3-b]pyrazin-7-yl)acrylamide] | ≤ 1000
21 | CCC(C)(O)c1ccc(-c2cnc3[nH]cc(/C=C/C(N)=O)c3c2)cc1 (centres unmarked) [Example 310, (E)-3-(5-(4-(2-hydroxybutan-2-yl)phenyl)-1H-pyrrolo[2,3-b]pyridin-3-yl)acrylamide] | ≤ 1000
22 | CC(C)(O)c1cncc(-c2cnc3[nH]cc(/C=C/C(N)=O)c3c2)c1 [Example 311, (E)-3-(5-(5-(2-hydroxypropan-2-yl)pyridin-3-yl)-1H-pyrrolo[2,3-b]pyridin-3-yl)acrylamide] | ≤ 1000
23 | CC(C)(O)c1ccc(-c2cnc3[nH]cc(/C=C/C(N)=O)c3c2)cn1 [Example 312, (E)-3-(5-(6-(2-hydroxypropan-2-yl)pyridin-3-yl)-1H-pyrrolo[2,3-b]pyridin-3-yl)acrylamide] | ≤ 1000
24 | CCC(=O)c1ccc(-c2cnc3[nH]cc(/C=C/C(N)=O)c3c2)c(C)c1 [Example 313, (E)-3-(5-(2-methyl-4-propionylphenyl)-1H-pyrrolo[2,3-b]pyridin-3-yl)acrylamide] | ≤ 1000
25 | CCC(=O)c1ccc(-c2cnc3[nH]cc(/C=C/C(N)=O)c3n2)c(C)c1 [Example 314, (E)-3-(2-(2-methyl-4-propionylphenyl)-5H-pyrrolo[2,3-b]pyrazin-7-yl)acrylamide] | ≤ 1000
26 | CC(=O)c1cc(-c2cnc3[nH]cc(/C=C/C(N)=O)c3c2)ccn1 [Example 315, (E)-3-(5-(2-acetylpyridin-4-yl)-1H-pyrrolo[2,3-b]pyridin-3-yl)acrylamide] | ≤ 1000
27 | NC(=O)/C=C/c1c[nH]c2ncc(-c3cc(C(F)(F)F)cc(C(F)(F)F)c3)nc12 [Example 316, (E)-3-(2-(3,5-bis(trifluoromethyl)phenyl)-5H-pyrrolo[2,3-b]pyrazin-7-yl)acrylamide] | ≤ 1000
28 | CC(C)(O)c1cc(-c2cnc3[nH]cc(/C=C/C(N)=O)c3c2)ccn1 [Example 317, (E)-3-(5-(2-(2-hydroxypropan-2-yl)pyridin-4-yl)-1H-pyrrolo[2,3-b]pyridin-3-yl)acrylamide] | ≤ 1000
29 | NC(=O)/C=C/c1c[nH]c2ncc(-c3ccc(C(=O)C(F)(F)F)cc3)cc12 [Example 319, (E)-3-(5-(4-(2,2,2-trifluoroacetyl)phenyl)-1H-pyrrolo[2,3-b]pyridin-3-yl)acrylamide] | ≤ 1000
30 | NC(=O)/C=C/c1c[nH]c2ncc(-c3ccc(N4CCCCC4)nc3)nc12 [Example 320, (E)-3-(2-(6-(piperidin-1-yl)pyridin-3-yl)-5H-pyrrolo[2,3-b]pyrazin-7-yl)acrylamide] | ≤ 1000
31 | NC(=O)/C=C/c1c[nH]c2ncc(N3CC(NC(=O)C4CCCC4)C3)cc12 [Example 321, (E)-N-(1-(3-(3-amino-3-oxoprop-1-en-1-yl)-1H-pyrrolo[2,3-b]pyridin-5-yl)azetidin-3-yl) cyclopentane-carboxamide] | ≤ 1000
32 | NC(=O)/C=C/c1c[nH]c2ncc(-c3ccc(C(O)c4nccs4)cc3)cc12 (centres unmarked) [Example 322, (E)-3-(5-(4-(hydroxy(thiazol-2-yl)methyl)phenyl)-1H-pyrrolo[2,3-b]pyridin-3-yl)acrylamide] | ≤ 1000
33 | NC(=O)/C=C\c1c[nH]c2ncc(-c3ccc(C(O)c4nccs4)cc3)cc12 (centres unmarked) [Example 323, (Z)-3-(5-(4-(hydroxy(thiazol-2-yl)methyl)phenyl)-1H-pyrrolo[2,3-b]pyridin-3-yl)acrylamide] | ≤ 1000
34 | NC(=O)/C=C/c1c[nH]c2ncc(-c3ccc(C(=O)c4nccs4)cc3)cc12 [Example 324, (E)-3-(5-(4-(thiazole-2-carbonyl)phenyl)-1H-pyrrolo[2,3-b]pyridin-3-yl)acrylamide] | ≤ 1000
35 | CC(C)COc1ccc(-c2cnc3[nH]cc(/C=C/C(N)=O)c3c2)cn1 [Example 325, (E)-3-(5-(6-isobutoxypyridin-3-yl)-1H-pyrrolo[2,3-b]pyridin-3-yl)acrylamide] | ≤ 1000
